These are literature values, as cited in US20200078426A1, “TREATMENT OF CANCER BY INFUSION OF ONCOLYTIC HERPES SIMPLEX VIRUS TO THE BLOOD” (VIRTTU BIOLOGICS LIMITED, priority 2015, published 2020).

SMILES strings stand for the structures.

The subject of the series is squamous cell head and neck cancer. The following applies: concurrent chemo-radiation arm, unresectable locally advanced disease; radiation alone 23%.

Turning to `N.N.[Cl][Pt][Cl]` [cisplatin], the “three year overall survival” value is reported as 37%.
